Experiment in all cases: NCI-60 cell line screen, 48 h
Test [1] concerns EKVX NSCLC.
The test system of test [2] is A549 NSCLC.
The test system of test [3] is LOX IMVI melanoma.
The subject of test [4] is OVCAR-8 ovarian.
For test [5], the system named is SK-MEL-2 melanoma.
Test [6] concerns HS 578T breast.
Test [7] deals with NCI-H522 lung.
For test [8], the system named is ACHN renal.
The test system of test [9] is U251 CNS.
For test [10], the system named is A498 renal.

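Five compound concentrations were applied to cells in 96-well plates for 48 hours; endpoints were derived by simple linear interpolation of the resulting dose-response curve. The concentration for full growth arrest is given as TGI.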

Turning to `CCOC(=O)CC[C@@H](NC(=O)c1ccc(NCc2ccc3nc(OC)c(OC)nc3c2)cc1)C(=O)OCC`, the TGI in [1] is above 100 µM; in [2], above 100 µM; in test [3], above 100 µM; in test [4], above 100 µM; in test [5], 40.6 µM; in test [6] it was above 80.9 µM. The TGI in [7] is 50.5 µM; in [8], 58.2 µM; in [9], above 100 µM.

For the molecule `CC1=NN(C(=O)CC(=O)Nc2cccc(Cl)c2)C(=O)C1N=Nc1ccc(S(=O)(=O)c2ccc(N=NC3C(=O)N(C(=O)CC(=O)Nc4cccc(Cl)c4)N=C3C)cc2)cc1` (stereo not drawn), the TGI in test [1], in test [2], in test [3], in test [4], in [5] and in test [6] was above 100 µM each time. The TGI in test [7], in test [8] and in test [9] was above 100 µM in each case.

On to `N#Cc1nsnc1-c1nc(-c2nsnc2C#N)nc(-c2nsnc2C#N)n1`, for which the TGI in test [1] was above 100 µM; in test [3] it was above 100 µM; in test [4], above 100 µM; in test [10], above 100 µM; in test [5], above 100 µM; in test [6], 94 µM. Moreover, the TGI in test [7], in [8] and in test [9] was above 100 µM throughout.

As to `C#CCSc1cnc2ccccc2c1Sc1c[nH]c2ccccc2c1=O`, the TGI in [1] was above 100 µM; in test [2], above 100 µM; in [3], 38.9 µM; in test [4], above 100 µM; in test [5] it was 53.5 µM; in test [6] it was above 100 µM. The TGI in test [7] was determined as 29.1 µM; in [8], 36.7 µM; in [9], 50 µM.

Regarding `CCOP(=O)(OCC)C(Cc1ccccc1)N=C(c1ccccc1)c1ccccc1` (stereo not drawn), the TGI in [1] stood at 34.3 µM; in test [2], 24.2 µM; in test [3], 24.7 µM; in test [4], 33.8 µM; in test [5], 38.2 µM; in test [6], 26.6 µM. Moreover, the TGI in test [7] amounted to 29.6 µM; in test [8], 28.6 µM; in test [9], 28.4 µM.

With `C/C(=N/NC(=S)N(Cc1ccccn1)Cc1ccccn1)c1cnccn1`, the TGI in [1] was 7.4 µM; in test [2], 14.5 µM; in test [3] it was 0.447 µM; in test [10] it was above 100 µM; in test [5], 26 µM; in [6], 55.7 µM. The TGI in test [7] is 1.56 µM; in test [8] it was 2.39 µM; in test [9] it was above 47.9 µM.

As to `CO/N=C1/C(n2[nH]c(=O)n(-c3ccccc3)c2=O)C2C=CC1n1c(=O)n(-c3ccccc3)c(=O)n12` (stereo not drawn), the TGI in [1], in [2], in [3], in test [4], in test [10] and in test [5] was above 100 µM in each case. Further, the TGI in test [6], in [7] and in test [9] was above 100 µM each time.

With `COc1cc(/C=C/C(=O)O)ccc1O`, the TGI in test [1], in test [2], in [3], in test [4], in [5] and in [6] was above 100 µM in each case. The TGI in test [7], in test [8] and in [9] was above 100 µM throughout.

In the case of `CCOC(=O)c1cc2cc(CSc3ccccc3)ccc2oc1=O`, the TGI in test [1], in [2], in test [3], in test [4], in [5] and in test [6] was above 100 µM throughout. Besides, the TGI in [7], in test [8] and in test [9] was above 100 µM in each case.

Regarding `COc1ccccc1/C=C1/Sc2scc(CC(=O)Nc3ccccc3)[n+]2C1=O`, the TGI was above 100 µM in [1]; above 100 µM in test [2]; above 100 µM in test [3]; above 100 µM in test [4]; 73.3 µM in test [5]; above 100 µM in test [6]. For the same molecule, the TGI in test [7] was 73.4 µM; in [8] it was above 100 µM; in test [9], above 100 µM.

As to `CC(=O)NC1CCC(NC(=O)OC(C)(C)C)C(NC(=O)OC(C)(C)C)C1` (stereo not drawn), the TGI in [2], in [3], in test [4], in [10], in [5] and in test [6] was above 100 µM in each case. The TGI in test [7], in test [8] and in test [9] was above 100 µM each time.

Take `Cc1ccnc2c1c(=O)c1ccccc1n2C`: the TGI in test [1] was above 100 µM; in test [3] it was above 100 µM; in [4], above 100 µM; in test [10], above 100 µM; in test [5], above 100 µM; in test [6], 73.5 µM. The values for the TGI in test [7], in test [8] and in test [9] were 65.7 µM, 56.8 µM and above 100 µM, respectively.

The record behind these values is PubChem BioAssay (NCI).
